Measured values published in PubChem BioAssay AID1963873 (Molecular Pharmacology Branch, DTP, NCI, 2024).

Tested on: 276233-004-R-J1-PDC KRAS spheroids with HUVEC/MSC, viability
Assay: Anticancer human tumor 276233-004-R-J1-PDC patient-derived colon adenocarcinoma cell line growth inhibition [KRAS2]
Conditions: for IC50: curve of first compound; for viability, T/C: stronger effect = lower value
Outline: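 Combination screen of spheroid viability in tumor-cell co-cultures with endothelial (HUVEC) and mesenchymal stem cell stroma. Each agent was tested in half-log dilutions, topping at clinical Cmax or at 10 microM without a known Cmax.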

[1] = second compound 0.1 µM, first compound 0.0316 µM
[2] = second compound 0.1 µM, first compound 0.1 µM
[3] = second compound 0.1 µM, first compound 0.316 µM
[4] = second compound 0.1 µM, first compound 1 µM
[5] = second compound 0.1 µM, first compound 3.16 µM
[6] = second compound 0.316 µM, first compound 0.0316 µM
[7] = second compound 0.316 µM, first compound 0.1 µM
[8] = second compound 0.316 µM, first compound 0.316 µM
[9] = second compound 0.316 µM, first compound 1 µM
[10] = second compound 0.316 µM, first compound 3.16 µM
[11] = second compound 1 µM, first compound 0.0316 µM
[12] = second compound 1 µM, first compound 0.1 µM
[13] = second compound 1 µM, first compound 0.316 µM
[14] = second compound 1 µM, first compound 1 µM
[15] = second compound 1 µM, first compound 3.16 µM
[16] = second compound 3.16 µM, first compound 0.0316 µM
[17] = second compound 3.16 µM, first compound 0.1 µM
[18] = second compound 3.16 µM, first compound 0.316 µM
[19] = second compound 3.16 µM, first compound 1 µM
[20] = second compound 3.16 µM, first compound 3.16 µM
[21] = second compound 10 µM, first compound 0.0316 µM
[22] = second compound 10 µM, first compound 0.1 µM
[23] = second compound 10 µM, first compound 0.316 µM
[24] = second compound 10 µM, first compound 1 µM
[25] = second compound 10 µM, first compound 3.16 µM
[26] = second compound 0.1 µM, first compound 0.01 µM
[27] = second compound 0.316 µM, first compound 0.01 µM
[28] = second compound 1 µM, first compound 0.01 µM
[29] = second compound 3.16 µM, first compound 0.01 µM
[30] = second compound 10 µM, first compound 0.01 µM
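Further: cells exposed to agents for seven days before viability read.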
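Wherever viability, T/C is given: 100% = DMSO vehicle control wells and lower values mean fewer viable cells.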

Q: Which IC50 (second compound 0.1 µM) does the source give for CC(C)NCC(C(=O)N1CCN(c2ncnc3c2C(C)CC3O)CC1)c1ccc(Cl)cc1 (stereo not given) + CC1OCC2(CCN(c3cnc(Sc4ccnc(N)c4Cl)c(N)n3)CC2)C1N here?
A: Its IC50 is > 10 µM.

Q: And the IC50 (second compound 0.316 µM)?
A: Its IC50 is 2.08 µM.

Q: What about the IC50 (second compound 1 µM) of the same molecule?
A: Its IC50 is 0.697 µM.

Q: What about the IC50 (second compound 3.16 µM) of the same molecule?
A: The IC50 was 0.343 µM.

Q: And the IC50 (second compound 10 µM)?
A: Its IC50 is 0.183 µM.

Q: And the viability, T/C [1]?
A: The viability, T/C was 77.2%.

Q: What about the viability, T/C [2] of the same molecule?
A: Its viability, T/C is 75.2%.

Q: And the viability, T/C [3]?
A: Its viability, T/C is 56.3%.

Q: What about the viability, T/C [4] of the same molecule?
A: The viability, T/C was 65.9%.

Q: And the viability, T/C [5]?
A: Its viability, T/C is 56.1%.

Q: And the viability, T/C (second compound 0.1 µM, first compound 10 µM)?
A: Its viability, T/C is 51.5%.

Q: And the viability, T/C [6]?
A: Its viability, T/C is 90.4%.

Q: And the viability, T/C [7]?
A: The viability, T/C was 69%.

Q: What about the viability, T/C [8] of the same molecule?
A: Its viability, T/C is 55.8%.

Q: What about the viability, T/C [9] of the same molecule?
A: The viability, T/C was 52.8%.

Q: What about the viability, T/C [10] of the same molecule?
A: The viability, T/C was 49.5%.

Q: And the viability, T/C (second compound 0.316 µM, first compound 10 µM)?
A: The viability, T/C was 47.5%.

Q: What about the viability, T/C [11] of the same molecule?
A: The viability, T/C was 68%.

Q: What about the viability, T/C [12] of the same molecule?
A: The viability, T/C was 59.5%.

Q: What about the viability, T/C [13] of the same molecule?
A: Its viability, T/C is 48.4%.

Q: What about the viability, T/C [14] of the same molecule?
A: Its viability, T/C is 52.8%.

Q: And the viability, T/C [15]?
A: Its viability, T/C is 48.1%.

Q: And the viability, T/C (second compound 1 µM, first compound 10 µM)?
A: Its viability, T/C is 40.2%.

Q: And the viability, T/C [16]?
A: Its viability, T/C is 63.3%.

Q: And the viability, T/C [17]?
A: Its viability, T/C is 58.4%.

Q: And the viability, T/C [18]?
A: The viability, T/C was 52.1%.

Q: And the viability, T/C [19]?
A: The viability, T/C was 41.4%.

Q: What about the viability, T/C [20] of the same molecule?
A: Its viability, T/C is 37.1%.

Q: And the viability, T/C (second compound 3.16 µM, first compound 10 µM)?
A: The viability, T/C was 31.5%.

Q: What about the viability, T/C [21] of the same molecule?
A: The viability, T/C was 59.1%.

Q: What about the viability, T/C [22] of the same molecule?
A: Its viability, T/C is 57%.

Q: What about the viability, T/C [23] of the same molecule?
A: Its viability, T/C is 38.1%.

Q: And the viability, T/C [24]?
A: Its viability, T/C is 41.7%.

Q: And the viability, T/C [25]?
A: Its viability, T/C is 36.1%.

Q: What about the viability, T/C (second compound 10 µM, first compound 10 µM) of the same molecule?
A: Its viability, T/C is 19.1%.

Q: CC1COCCN1c1cc(-c2ccnn2C)c2ccnc(-c3ccn[nH]3)c2n1 (stereo not given) + CC1OCC2(CCN(c3cnc(Sc4ccnc(N)c4Cl)c(N)n3)CC2)C1N was tested. Which IC50 (second compound 0.1 µM) did it give?
A: Its IC50 is > 3.16 µM.

Q: What about the IC50 (second compound 0.316 µM) of the same molecule?
A: Its IC50 is 2.18 µM.

Q: What about the IC50 (second compound 1 µM) of the same molecule?
A: The IC50 was 2.83 µM.

Q: What about the IC50 (second compound 3.16 µM) of the same molecule?
A: The IC50 was 0.632 µM.

Q: What about the IC50 (second compound 10 µM) of the same molecule?
A: Its IC50 is 0.737 µM.

Q: What about the viability, T/C [26] of the same molecule?
A: The viability, T/C was 107%.

Q: What about the viability, T/C [1] of the same molecule?
A: Its viability, T/C is 96%.

Q: What about the viability, T/C [2] of the same molecule?
A: The viability, T/C was 78.3%.

Q: And the viability, T/C [3]?
A: Its viability, T/C is 86.2%.

Q: What about the viability, T/C [4] of the same molecule?
A: Its viability, T/C is 60.9%.

Q: And the viability, T/C [5]?
A: Its viability, T/C is 56.1%.

Q: And the viability, T/C [27]?
A: Its viability, T/C is 76.9%.

Q: And the viability, T/C [6]?
A: The viability, T/C was 106%.

Q: What about the viability, T/C [7] of the same molecule?
A: Its viability, T/C is 84.8%.

Q: What about the viability, T/C [8] of the same molecule?
A: The viability, T/C was 74.6%.

Q: What about the viability, T/C [9] of the same molecule?
A: The viability, T/C was 61.1%.

Q: What about the viability, T/C [10] of the same molecule?
A: The viability, T/C was 45%.

Q: What about the viability, T/C [28] of the same molecule?
A: Its viability, T/C is 87.7%.

Q: What about the viability, T/C [11] of the same molecule?
A: The viability, T/C was 73.2%.

Q: What about the viability, T/C [12] of the same molecule?
A: The viability, T/C was 67.9%.

Q: And the viability, T/C [13]?
A: The viability, T/C was 68.5%.

Q: And the viability, T/C [14]?
A: The viability, T/C was 57.4%.

Q: What about the viability, T/C [15] of the same molecule?
A: The viability, T/C was 47.5%.

Q: And the viability, T/C [29]?
A: The viability, T/C was 64.1%.

Q: And the viability, T/C [16]?
A: Its viability, T/C is 86.2%.

Q: And the viability, T/C [17]?
A: The viability, T/C was 64.8%.

Q: What about the viability, T/C [18] of the same molecule?
A: The viability, T/C was 57%.

Q: And the viability, T/C [19]?
A: The viability, T/C was 46.8%.

Q: What about the viability, T/C [20] of the same molecule?
A: The viability, T/C was 40.7%.

Q: And the viability, T/C [30]?
A: The viability, T/C was 61.1%.

Q: And the viability, T/C [21]?
A: Its viability, T/C is 66.4%.

Q: What about the viability, T/C [22] of the same molecule?
A: Its viability, T/C is 56.6%.

Q: And the viability, T/C [23]?
A: Its viability, T/C is 49.2%.

Q: What about the viability, T/C [24] of the same molecule?
A: The viability, T/C was 52.9%.

Q: What about the viability, T/C [25] of the same molecule?
A: Its viability, T/C is 41.1%.

Q: Which IC50 (second compound 0.1 µM) does the source give for CCN1CCN(Cc2ccc(Nc3ncc(F)c(-c4cc(F)c5nc(C)n(C(C)C)c5c4)n3)nc2)CC1 + CC1OCC2(CCN(c3cnc(Sc4ccnc(N)c4Cl)c(N)n3)CC2)C1N here?
A: Its IC50 is > 1 µM.

Q: What about the IC50 (second compound 0.316 µM) of the same molecule?
A: The IC50 was > 1 µM.

Q: And the IC50 (second compound 1 µM)?
A: The IC50 was > 1 µM.

Q: And the IC50 (second compound 3.16 µM)?
A: Its IC50 is > 1 µM.

Q: What about the IC50 (second compound 10 µM) of the same molecule?
A: The IC50 was > 1 µM.

Q: And the viability, T/C (second compound 0.1 µM, first compound 0.00316 µM)?
A: The viability, T/C was 89.9%.

Q: What about the viability, T/C [26] of the same molecule?
A: The viability, T/C was 99.2%.

Q: What about the viability, T/C [1] of the same molecule?
A: The viability, T/C was 87%.

Q: What about the viability, T/C [2] of the same molecule?
A: Its viability, T/C is 76.5%.

Q: What about the viability, T/C [3] of the same molecule?
A: The viability, T/C was 93.5%.

Q: What about the viability, T/C [4] of the same molecule?
A: Its viability, T/C is 111%.

Q: And the viability, T/C (second compound 0.316 µM, first compound 0.00316 µM)?
A: The viability, T/C was 81.3%.

Q: What about the viability, T/C [27] of the same molecule?
A: Its viability, T/C is 89.6%.

Q: And the viability, T/C [6]?
A: The viability, T/C was 80.7%.

Q: What about the viability, T/C [7] of the same molecule?
A: Its viability, T/C is 85.6%.

Q: What about the viability, T/C [8] of the same molecule?
A: Its viability, T/C is 104%.

Q: And the viability, T/C [9]?
A: Its viability, T/C is 99.5%.

Q: And the viability, T/C (second compound 1 µM, first compound 0.00316 µM)?
A: Its viability, T/C is 83.7%.

Q: What about the viability, T/C [28] of the same molecule?
A: Its viability, T/C is 86%.

Q: What about the viability, T/C [11] of the same molecule?
A: The viability, T/C was 69.3%.

Q: What about the viability, T/C [12] of the same molecule?
A: Its viability, T/C is 72.3%.

Q: And the viability, T/C [13]?
A: Its viability, T/C is 93.4%.

Q: What about the viability, T/C [14] of the same molecule?
A: The viability, T/C was 67%.

Q: What about the viability, T/C (second compound 3.16 µM, first compound 0.00316 µM) of the same molecule?
A: Its viability, T/C is 74.5%.

Q: What about the viability, T/C [29] of the same molecule?
A: Its viability, T/C is 66.5%.

Q: And the viability, T/C [16]?
A: Its viability, T/C is 68.8%.

Q: What about the viability, T/C [17] of the same molecule?
A: Its viability, T/C is 62.8%.

Q: What about the viability, T/C [18] of the same molecule?
A: The viability, T/C was 54.7%.

Q: And the viability, T/C [19]?
A: The viability, T/C was 70%.

Q: What about the viability, T/C (second compound 10 µM, first compound 0.00316 µM) of the same molecule?
A: The viability, T/C was 51.2%.

Q: And the viability, T/C [30]?
A: Its viability, T/C is 71%.

Q: What about the viability, T/C [21] of the same molecule?
A: The viability, T/C was 58.7%.

Q: And the viability, T/C [22]?
A: The viability, T/C was 53.6%.

Q: And the viability, T/C [23]?
A: Its viability, T/C is 64.6%.

Q: What about the viability, T/C [24] of the same molecule?
A: Its viability, T/C is 63%.
